Experimental findings from ChEMBL document CHEMBL2062520, “Synthesis and in vitro antimalarial activity of a series of bisquinoline and bispyrrolo[1,2a]quinoxaline compounds” (Eur J Med Chem, 2012) are described below.

The nature of data set [1]: Aqueous solubility of the compound in phosphate buffer at pH 5.5 after 24 hrs by HPLC analysis. Format: physicochemical.
The subject of data set [2] is Plasmodium falciparum. The data set is described as follows: Resistant index, ratio of IC50 for chloroquine-resistant Plasmodium falciparum Dd2 to IC50 for chloroquine-sensitive Plasmodium falciparum D10. Format: functional.
A short description of data set [3]: physchem. The conditions noted are these: octanol/phosphate buffered saline.
Description: Octanol-phosphate buffered saline distribution coefficient, log D of the compound at 2 mg after 48 hrs by HPLC analysis
In data set [4] the test system is Plasmodium falciparum. The experiment in a line: Antimalarial activity against asexual erythrocyte stages of chloroquine-sensitive Plasmodium falciparum D10. It is filed as functional, organism-based.
In data set [5] the test system is Plasmodium falciparum. The data set is described as follows: Antimalarial activity against asexual erythrocyte stages of chloroquine-resistant Plasmodium falciparum Dd2. Format: functional, organism-based.
Data set [6] concerns CHO. The data set is described as follows: Cytotoxicity against CHO cells by MTT assay. Format: cell-based. The conditions noted are these: Cricetulus griseus. Background: Tetrazolium dyes change colour on reduction, which living cells bring about.
A short description of data set [7]: Selectivity index, ratio of IC50 for CHO cells to IC50 for chloroquine-sensitive Plasmodium falciparum D10. Format: toxicity, cell-based. The conditions noted are these: hamster, read-out: Ratio IC50.
For data set [8], the system named is TK-10. The data set is described as follows: Cytotoxicity against human TK10 cells after 48 hrs by sulforhodamine B assay. It is filed as functional. The conditions noted are these: for GI50 / TGI / CC50: Homo sapiens, TK-10, 48 h; for CC50: read-out: LC50 (the source's name). A general note: In SRB staining, fixed cells bind dye roughly in proportion to their protein.

Data set [9] relates to MCF7. The data set is described as follows: Cytotoxicity against human MCF7 cells after 48 hrs by sulforhodamine B assay. The conditions noted are these: for GI50 / TGI / CC50: Homo sapiens, MCF7, 48 h; for CC50: read-out: LC50 (the source's name). It is filed as functional.
The test system of data set [10] is UACC-62. The data set is described as follows: Cytotoxicity against human UACC62 cells after 48 hrs by sulforhodamine B assay. Format: functional. The conditions noted are these: for GI50 / TGI / CC50: Homo sapiens, UACC-62, 48 h; for CC50: read-out: LC50 (the source's name).

Converted amounts (≈) assume the structure as drawn.

Turning to `Cc1cccc2nccc(NCCNCCNc3ccnc4cccc(C)c34)c12`, the solubility (as a rule, the concentration that dissolves in the medium under given conditions) at 24 h in [1] is 29.5 mM (≈ 11.4 mg/mL). Further, the “Ratio IC50” value in data set [2] stood at 0.7. In [3], the logD (in general, lipophilicity at a set pH, counting ionised and neutral species) at 48 h was determined as 0.05. For the same compound, the figures for the 50% inhibitory concentration (IC50) in data set [4] and in data set [5] were 741 nM and 507 nM, respectively.
Take `CC[C@H]1CN2CCc3cc(OC)c(OC)cc3[C@@H]2C[C@@H]1C[C@H]1NCCc2cc(OC)c(OC)cc21` [EMETINE]: the 50% inhibitory concentration (IC50) (as a rule, the concentration that inhibits the measured activity by half) in data set [6] came out at 300 nM.
`CN(CCCNc1nc2ccccc2n2cccc12)CCCNc1nc2ccccc2n2cccc12` registered a solubility at 24 h in data set [1] of 30.2 mM (≈ 14.4 mg/mL). The “Ratio IC50” value in data set [2] is 6.5. The selectivity ratio in data set [7] was found to be 39. The same compound registered a logD at 48 h in data set [3] of 0.36. The IC50 in data set [4] is 112 nM; in data set [5], 724 nM; in data set [6] it was 4300 nM.
Consider `Clc1ccc2c(NCCNCCNCCNc3ccnc4cc(Cl)ccc34)ccnc2c1`, for which the LC100 in [8], in data set [9] and in data set [10] was above 100 µM in each case. Besides, the concentration for 50% growth inhibition (GI50) (in general, the concentration giving 50% growth inhibition) came to 5890 nM in data set [8], 760 nM in [9] and 2870 nM in data set [10]. In addition, the TGI – broadly, the concentration giving total growth inhibition – in data set [8] was determined as 5360 nM; in data set [9], 3530 nM; in [10] it was 5300 nM. The CC50 in data set [8] came to 7710 nM; in data set [9] it was 7370 nM; in data set [10] it was 7740 nM. In addition, the concentration in solution in [1] (solubility at 24 h) was 38.7 mM (≈ 18.2 mg/mL). For the same compound, in data set [2], the “Ratio IC50” value came to 0.4. The selectivity ratio in data set [7] came out at 93. The compound further returned a logD at 48 h in [3] of 0.28. In addition, the results for the half-maximal inhibitory concentration (IC50) in [4], in data set [5] and in data set [6] were 87.7 nM, 35.5 nM and 8010 nM, respectively.
In the case of `Cc1cccc2nccc(NCCCNCCNc3ccnc4cccc(C)c34)c12`, the solubility at 24 h in [1] amounted to 28.2 mM (≈ 11.3 mg/mL). For the same compound, the “Ratio IC50” value in [2] worked out at 0.5. Further, the logD at 48 h in data set [3] amounted to 0.32. In addition, the results for the IC50 in data set [4] and in data set [5] were 214 nM and 105 nM, respectively.
Compound `Clc1ccc2c(NCCNCCNc3ccnc4cc(Cl)ccc34)ccnc2c1` showed a solubility at 24 h in data set [1] of 32 mM (≈ 13.6 mg/mL). The compound also came in with a logD at 48 h in [3] of 0.3.
`c1ccc2c(c1)nc(NCCNCCNc1nc3ccccc3n3cccc13)c1cccn12`: in data set [1], the solubility at 24 h is 27.5 mM (≈ 12 mg/mL). Besides, in data set [2], the “Ratio IC50” value came out at 3.4. In data set [3], this compound returned a logD at 48 h of 0.39. Further, the IC50 in data set [4] is 554 nM; in data set [5], 1900 nM.
As to `Cc1cccc2nccc(NCCCNCCNCCCNc3ccnc4cccc(C)c34)c12`, in [1], the concentration in solution (solubility at 24 h) came to 36.5 mM (≈ 16.7 mg/mL). For the same compound, in data set [2], the “Ratio IC50” value came to 0.7. Also, in data set [7], the selectivity ratio came out at 187. Moreover, the log distribution coefficient (logD) at 48 h in data set [3] was found to be 0.34. Besides, the values for the IC50 in data set [4], in [5] and in data set [6] were 922 nM, 608 nM and 174000 nM, respectively.
The compound `Cc1cccc2nccc(NCCNCCNCCNc3ccnc4cccc(C)c34)c12` came in with a solubility at 24 h in [1] of 38.9 mM (≈ 16.7 mg/mL). Moreover, the “Ratio IC50” value in data set [2] is recorded as 0.8. The same compound displayed a logD at 48 h in data set [3] of 0.4. Moreover, the IC50 in data set [4] came out at 1420 nM; in data set [5], 1100 nM.
`c1ccc2c(c1)nc(NCCCNCCCNc1nc3ccccc3n3cccc13)c1cccn12` came in with a solubility at 24 h in [1] of 24.1 mM (≈ 11.2 mg/mL). In [2], the “Ratio IC50” value is reported as 4.7. Moreover, the selectivity ratio in data set [7] worked out at 51. In addition, in data set [3], the logD at 48 h came to 0.32. Moreover, the IC50 in data set [4] was 75.3 nM; in [5], 356 nM; in data set [6] it was 3800 nM.
On to `Clc1ccc2c(NCCCNCCNc3ccnc4cc(Cl)ccc34)ccnc2c1`, for which the LC100 in data set [8], in data set [9] and in data set [10] was above 100 µM throughout. The GI50 in [8] worked out at 1230 nM; in data set [9] it was 600 nM; in data set [10] it was 2070 nM. The TGI in data set [8] was found to be 4250 nM; in [9], 2790 nM; in [10] it was 4890 nM. The figures for the CC50 in data set [8], in data set [9] and in data set [10] were 7270 nM, 7210 nM and 7720 nM, respectively. Also, the concentration in solution in [1] (solubility at 24 h) came to 23.5 mM (≈ 10.4 mg/mL). The “Ratio IC50” value in data set [2] came out at 0.9. Also, in [7], the selectivity ratio is 47. The compound further displayed a logD at 48 h in data set [3] of 0.3. The IC50 worked out at 66.1 nM in data set [4], 56.4 nM in [5] and 3100 nM in data set [6].
Compound `Cc1cccc2nccc(NCCCNCCCNc3ccnc4cccc(C)c34)c12` returned a solubility at 24 h in data set [1] of 27.9 mM (≈ 11.5 mg/mL). Besides, the “Ratio IC50” value in data set [2] turned out to be 0.6. Also, in data set [7], the selectivity ratio came to 1024. In data set [3], this compound displayed a pH-dependent lipophilicity (logD) at 48 h of 0.14. The IC50 turned out to be 129 nM in data set [4], 80.2 nM in [5] and 132000 nM in data set [6].
Take `c1ccc2c(c1)nc(NCCNCCNCCNc1nc3ccccc3n3cccc13)c1cccn12`: the solubility at 24 h in [1] turned out to be 34 mM (≈ 16.3 mg/mL). Besides, the “Ratio IC50” value in [2] was found to be 2.3. For the same compound, in data set [7], the selectivity ratio was 4.5. This compound also returned a logD at 48 h in data set [3] of -0.02. Also, the results for the IC50 in [4], in data set [5] and in [6] were 1800 nM, 4170 nM and 8100 nM, respectively.
Take `Clc1ccc2c(NCCCNCCNCCCNc3ccnc4cc(Cl)ccc34)ccnc2c1`: the LC100 in data set [8], in data set [9] and in [10] was above 100 µM each time. The GI50 in data set [8] turned out to be 2100 nM; in data set [9], 380 nM; in [10], 1060 nM. The TGI in data set [8] came out at 4740 nM; in data set [9], 1650 nM; in data set [10] it was 4090 nM. Besides, the results for the CC50 in [8], in data set [9] and in [10] were 7380 nM, 6430 nM and 7110 nM, respectively. The compound also had a solubility at 24 h in [1] of 18.9 mM (≈ 9.42 mg/mL). Further, the “Ratio IC50” value in data set [2] is listed as 0.4. In addition, the selectivity ratio in data set [7] was 102. Also, the logD at 48 h in data set [3] was determined as 0.3. For the same compound, the IC50 in [4] was determined as 129 nM; in data set [5], 49.5 nM; in [6], 13000 nM.
`Cc1cccc2nccc(NCCCN(C)CCCNc3ccnc4cccc(C)c34)c12`: the solubility at 24 h in data set [1] was 31.2 mM (≈ 13.3 mg/mL). For the same compound, the “Ratio IC50” value in [2] is on record as 10.4. In [3], the logD at 48 h is 0.16. For the same compound, the figures for the half-maximal inhibitory concentration (IC50) in data set [4] and in data set [5] were 185 nM and 1910 nM, respectively.
`c1ccc2c(c1)nc(NCCCNCCNc1nc3ccccc3n3cccc13)c1cccn12` yielded a solubility at 24 h in data set [1] of 28.6 mM (≈ 12.8 mg/mL). Besides, in data set [2], the “Ratio IC50” value is 6.9. The selectivity ratio in data set [7] was determined as 14. Besides, the logD at 48 h in data set [3] came to 0.34. The IC50 in [4] was found to be 199 nM; in data set [5], 1380 nM; in data set [6], 2800 nM.
On to `Clc1ccc2c(NCCCNCCCNc3ccnc4cc(Cl)ccc34)ccnc2c1`, for which, in data set [1], the concentration in solution (solubility at 24 h) came to 28.9 mM (≈ 13.1 mg/mL). Besides, the logD at 48 h in data set [3] is 0.28.
With `CN(CCCNc1ccnc2cc(Cl)ccc12)CCCNc1ccnc2cc(Cl)ccc12`, the LC100 is 45.12 µM in data set [8], above 100 µM in data set [9] and above 100 µM in [10]. For the same compound, the results for the GI50 in data set [8], in data set [9] and in data set [10] were 540 nM, 390 nM and 360 nM, respectively. Further, the TGI in data set [8] came to 1000 nM; in data set [9] it was 690 nM; in data set [10], 640 nM. The CC50 in data set [8] was 5610 nM; in data set [9] it was 1200 nM; in data set [10] it was 920 nM. In [1], the solubility at 24 h was 32.9 mM (≈ 15.4 mg/mL). For the same compound, in [2], the “Ratio IC50” value is listed as 1.9. In addition, the selectivity ratio in [7] is 211. Further, the logD at 48 h in data set [3] worked out at 0.29. Moreover, the results for the IC50 in [4], in data set [5] and in data set [6] were 37.4 nM, 71.1 nM and 7800 nM, respectively.
